Consider 22 compounds from patent publication US10112937B2, “P2X7 modulators and methods of use” (Janssen Pharmaceutica NV, priority 2013, dated 2018).

Structures are written as SMILES.

Common to all, as to type: cell-based
One test deals with rat P2X7 (Rattus norvegicus (Rat), UniProt Q64663). The test can be described thus: Ca2+ flux (FLIPR) in 1321N1 cells expressing recombinant rat P2X7.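 Also: Calcium-4 dye fluorescence change read 180 s after agonist addition, with cells preincubated 30 min with compound and dye in 96-well plates.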
rat P2X7, sequence (Q64663 whole entry): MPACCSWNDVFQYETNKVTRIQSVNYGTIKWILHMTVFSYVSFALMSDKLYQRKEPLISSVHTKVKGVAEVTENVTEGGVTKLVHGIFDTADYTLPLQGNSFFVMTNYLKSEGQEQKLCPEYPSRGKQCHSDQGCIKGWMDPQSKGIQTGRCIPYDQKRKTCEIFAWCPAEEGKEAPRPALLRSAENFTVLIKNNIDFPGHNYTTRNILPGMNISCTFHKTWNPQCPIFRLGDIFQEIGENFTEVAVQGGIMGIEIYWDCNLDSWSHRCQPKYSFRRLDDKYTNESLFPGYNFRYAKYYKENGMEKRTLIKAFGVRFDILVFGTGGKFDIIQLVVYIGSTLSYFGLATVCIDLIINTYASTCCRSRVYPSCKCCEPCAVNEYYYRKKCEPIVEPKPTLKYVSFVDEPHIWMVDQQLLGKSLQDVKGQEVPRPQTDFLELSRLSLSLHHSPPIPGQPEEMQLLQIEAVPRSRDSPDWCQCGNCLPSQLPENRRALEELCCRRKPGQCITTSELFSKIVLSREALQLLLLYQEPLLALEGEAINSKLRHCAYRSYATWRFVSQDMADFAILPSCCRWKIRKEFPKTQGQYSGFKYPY
Test [1] has as its target T1, human P2X7 (Homo sapiens (Human), UniProt Q99572). Put plainly: Ca2+ flux (FLIPR) in 1321N1 cells expressing recombinant human P2X7. (In general: A change in cytosolic calcium serves as a functional read-out for many receptors and channels.)
Test [2] concerns the target T1, human P2X7. The test can be described thus: P2X7 antagonism in human PBMCs (IL-1β release after LPS + Bz-ATP, ELISA). To be noted: human PBMCs; for PBMC 1 μM (% control): test compound 1 μM. In general terms: ELISA stands for enzyme-linked immunosorbent assay.
The mark [3] stands for this setting: 1321N1 cells, recombinant rat P2X7, 250 μM BzATP.
[4] abbreviates: 1321N1 cells, recombinant human P2X7, 250 μM BzATP.
[5] abbreviates: Ca2+ flux, 250 μM BzATP, rat P2X7 1321N1 cells.
Where [6] appears, read: Ca2+ flux, 250 μM BzATP, human P2X7 1321N1 cells.
Setting [7] is: 10 μM test compound, LPS + Bz-ATP.

T1 sequence (Q99572 whole entry): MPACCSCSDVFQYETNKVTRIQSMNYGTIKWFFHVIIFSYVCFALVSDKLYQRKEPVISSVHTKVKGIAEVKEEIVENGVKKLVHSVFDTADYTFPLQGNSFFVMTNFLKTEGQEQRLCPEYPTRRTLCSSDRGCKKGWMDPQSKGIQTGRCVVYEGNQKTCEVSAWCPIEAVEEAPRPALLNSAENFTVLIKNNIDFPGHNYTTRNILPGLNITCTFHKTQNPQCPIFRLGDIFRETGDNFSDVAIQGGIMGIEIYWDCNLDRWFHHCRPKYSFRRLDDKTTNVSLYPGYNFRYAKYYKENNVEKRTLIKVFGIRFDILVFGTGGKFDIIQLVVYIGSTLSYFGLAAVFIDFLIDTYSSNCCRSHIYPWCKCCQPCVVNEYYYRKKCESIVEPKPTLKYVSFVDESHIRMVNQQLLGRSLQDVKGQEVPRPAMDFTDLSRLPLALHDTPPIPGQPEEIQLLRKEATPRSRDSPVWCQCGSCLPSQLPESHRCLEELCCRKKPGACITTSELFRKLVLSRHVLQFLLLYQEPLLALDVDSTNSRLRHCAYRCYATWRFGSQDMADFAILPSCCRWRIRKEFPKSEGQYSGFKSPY
Description for rat P2X7: P2X7 Antagonism in Recombinant Human P2X7 Cells or Recombinant Rat P2X7 Cells: (a) Ca^2+ Flux and (b) Radioligand Binding
1321N1 cells expressing the recombinant human or rat P2X7 channel was cultured in HyQ DME/(HyClone/Dulbecco's Modified Eagle Medium) high glucose supplemented with 10% Fetal Bovine Serum (FBS) and appropriate selection marker. Cells were seeded at a density of 25000 cells/well (96-well clear bottom black walled plates) in 100 μl volume/well. On the day of the experiment, cell plates were washed with assay buffer, containing (in mM): 130 NaCl, 2 KCl, 1 CaCl2, 1 MgCl2, 10 HEPES, 5 glucose; pH 7.40 and 300 mOs. After the wash, cells were loaded with the Calcium-4 dye (Molecular Device) and incubated in the dark for 60 minutes. Test compounds were prepared at 250× the test concentration in neat DMSO. Intermediate 96-well compound plates were prepared by transferring 1.2 μL of the compound into 300 μL of assay buffer. A further 3× dilution occurred when transferring 50 μL/well of the compound plate to 100 μL/well in the cell plate. Cells were incubated with test compounds and dye for 30 minutes. […] The fluorescence change was measured 180 seconds after adding the agonist.

As usually defined, the IC50 is the concentration at which inhibition is half-maximal. For the compound `CC1c2nnn(-c3ncc[nH]3)c2CCN1C(=O)c1cccc(Cl)c1Cl` (stereo not drawn) [Example 384, (1-(1H-imidazol-2-yl)-4-methyl-6,7-dihydro-1H-[1,2,3]triazolo[4,5-c]pyridin-5(4H)-yl)(2,3-dichlorophenyl)methanone], the figures for the concentration for half-maximal inhibition (IC50) on rat P2X7 (setting [3]) and at human P2X7 [1] (setting [4]) were greater than 10000 nM and 1380 nM, respectively. Moreover, the “PBMC 10 μM (% control)” value on human P2X7 [2] (test compound 10 μM) is recorded as −6.3 % control.

With `Cc1cc(-n2nnc3c2CCN(C(=O)c2cccc(C(F)(F)F)c2F)C3C)ncn1` (stereo not drawn) [Example 396, (2-fluoro-3-(trifluoromethyl)phenyl)(4-methyl-1-(6-methylpyrimidin-4-yl)-6,7-dihydro-1H-[1,2,3]triazolo[4,5-c]pyridin-5(4H)-yl)methanone], the figures for the 50% inhibitory concentration (IC50) at rat P2X7 (setting [3]) and at human P2X7 [1] (setting [4]) were greater than 10000 nM and 9770 nM, respectively. Further, on human P2X7 [2] (test compound 10 μM), the “PBMC 10 μM (% control)” value was found to be 23.0 % control.

For the compound `Cc1ccnc(-n2nnc3c2CCN(C(=O)c2cccc(OC(F)(F)F)c2F)C3C)c1` (stereo not drawn) [Example 373, (2-fluoro-3-(trifluoromethoxy)phenyl)(4-methyl-1-(4-methylpyridin-2-yl)-6,7-dihydro-1H-[1,2,3]triazolo[4,5-c]pyridin-5(4H)-yl)methanone], the values for the IC50 on rat P2X7 (setting [3]) and at human P2X7 [1] (setting [4]) were 10100 nM and 1660 nM, respectively. Also, at human P2X7 [2] (test compound 10 μM), the “PBMC 10 μM (% control)” value is given as 17.2 % control.

On to `CC1c2n[nH]c(-c3ccnn3C)c2CCN1C(=O)c1cccc(Cl)c1Cl` (stereo not drawn) [Example 436, (2,3-dichlorophenyl)(7-methyl-3-(1-methyl-1H-pyrazol-5-yl)-4,5-dihydro-2H-pyrazolo[3,4-c]pyridin-6(7H)-yl)methanone], for which the IC50 at rat P2X7 (setting [5]) was greater than 10000 nM; on human P2X7 [1] (setting [6]), 1130 nM. Further, the “PBMC 10 μM (% control)” value at human P2X7 [2] (setting [7]) is −3.4 % control.

Take `CCn1ccc(-n2nnc3c2CCN(C(=O)c2ccnc(C(F)(F)F)c2F)[C@H]3C)n1` [Example 409, (S)-(1-(1-ethyl-1H-pyrazol-3-yl)-4-methyl-6,7-dihydro-1H-[1,2,3]triazolo[4,5-c]pyridin-5(4H)-yl)(3-fluoro-2-(trifluoromethyl)pyridin-4-yl)methanone]: the half-maximal inhibitory concentration (IC50) on rat P2X7 (setting [5]) came to 18.4 nM; at human P2X7 [1] (setting [6]), 28.9 nM. In addition, on human P2X7 [2] (setting [7]), the “PBMC 10 μM (% control)” value worked out at 0.5 % control.

As for `O=C(c1cccc(C(F)(F)F)c1Cl)N1CCc2c(ncn2-c2ccccc2)C1` [Example 2, (2-Chloro-3-(trifluoromethyl)phenyl)(1-phenyl-6,7-dihydro-1H-imidazo[4,5-c]pyridin-5(4H)-yl)methanone], the concentration for half-maximal inhibition (IC50) stood at 2910 nM on rat P2X7 (setting [3]) and 12.1 nM at human P2X7 [1] (setting [4]). For the same compound, at human P2X7 [2], the “PBMC 1 μM (% control)” value stood at 7.9 % control.

For the compound `C[C@H]1Cc2c(nnn2-c2ncc(O)cn2)CN1C(=O)c1cccc(C(F)(F)F)c1F` [Example 428, (S)-(2-fluoro-3-(trifluoromethyl)phenyl)(1-(5-hydroxypyrimidin-2-yl)-6-methyl-6,7-dihydro-1H-[1,2,3]triazolo[4,5-c]pyridin-5(4H)-yl)methanone], the IC50 at rat P2X7 (setting [5]) was found to be 21.2 nM; at human P2X7 [1] (setting [6]), 16.6 nM. At human P2X7 [2] (setting [7]), the “PBMC 10 μM (% control)” value is 1.4 % control.

Take `Cc1cc(-n2nnc3c2CCN(C(=O)c2cc(C(F)(F)F)ccc2Cl)C3C)ncc1F` (stereo not drawn) [Example 352, (2-chloro-5-(trifluoromethyl)phenyl)(1-(5-fluoro-4-methylpyridin-2-yl)-4-methyl-6,7-dihydro-1H-[1,2,3]triazolo[4,5-c]pyridin-5(4H)-yl)methanone]: the concentration for half-maximal inhibition (IC50) on rat P2X7 (setting [3]) and on human P2X7 [1] (setting [4]) was greater than 10000 nM throughout. Further, the “PBMC 10 μM (% control)” value at human P2X7 [2] (test compound 10 μM) amounted to 98.2 % control.

Regarding `Cc1cc(-n2nnc3c2CCN(C(=O)c2cccc(OC(F)(F)F)c2F)C3C)ncc1F` (stereo not drawn) [Example 374, (2-fluoro-3-(trifluoromethoxy)phenyl)(1-(5-fluoro-4-methylpyridin-2-yl)-4-methyl-6,7-dihydro-1H-[1,2,3]triazolo[4,5-c]pyridin-5(4H)-yl)methanone], the IC50 on rat P2X7 (setting [3]) and on human P2X7 [1] (setting [4]) was greater than 10000 nM throughout. On human P2X7 [2] (test compound 10 μM), the “PBMC 10 μM (% control)” value was determined as 104.3 % control.

As to `O=C(c1ccc(Cl)cc1F)N1CCc2c(nnn2-c2ncccn2)C1` [Example 280, (4-chloro-2-fluorophenyl)(1-(pyrimidin-2-yl)-6,7-dihydro-1H-[1,2,3]triazolo[4,5-c]pyridin-5(4H)-yl)methanone], the IC50 at rat P2X7 (setting [3]) amounted to 1350 nM; on human P2X7 [1] (setting [4]) it was 255 nM. In addition, the “PBMC 10 μM (% control)” value on human P2X7 [2] (test compound 10 μM) came to 3.4 % control.

For `C[C@H]1Cc2c(nnn2-c2ncc(F)cn2)CN1C(=O)c1cccc(C(F)(F)F)c1O` [Example 426, (S)-(1-(5-fluoropyrimidin-2-yl)-6-methyl-6,7-dihydro-1H-[1,2,3]triazolo[4,5-c]pyridin-5(4H)-yl)(2-hydroxy-3-(trifluoromethyl)phenyl)methanone], the IC50 at rat P2X7 (setting [5]) and at human P2X7 [1] (setting [6]) was greater than 10000 nM each time. Moreover, the “PBMC 10 μM (% control)” value on human P2X7 [2] (setting [7]) turned out to be 113.2 % control.

For `O=C(c1cccc(C(F)(F)F)c1Cl)N1CCc2c(nnn2-c2cc(F)ccn2)C1` [Example 131, (2-Chloro-3-(trifluoromethyl)phenyl)(1-(4-fluoropyridin-2-yl)-6,7-dihydro-1H-[1,2,3]triazolo[4,5-c]pyridin-5(4H)-yl)methanone], the figures for the half-inhibitory concentration (IC50) on rat P2X7 (setting [3]) and on human P2X7 [1] (setting [4]) were 30.4 nM and 2.1 nM, respectively. Also, the “PBMC 10 μM (% control)” value on human P2X7 [2] (test compound 10 μM) is given as 8.3 % control.

Consider `CCOC(=O)C1c2ncn(-c3ccccn3)c2CCN1C(=O)c1cccc(C(F)(F)F)c1Cl` (stereo not drawn) [Example 24, Ethyl 5-(2-chloro-3-(trifluoromethyl)benzoyl)-1-(pyridin-2-yl)-4,5,6,7-tetrahydro-1H-imidazo[4,5-c]pyridine-4-carboxylate], for which the IC50 at rat P2X7 (setting [3]) turned out to be 26.2 nM; on human P2X7 [1] (setting [4]), 23.3 nM. For the same compound, the “PBMC 1 μM (% control)” value on human P2X7 [2] is given as 2.9 % control.

In the case of `Cc1c(C(=O)N2Cc3nnn(-c4ccn[nH]4)c3C[C@@H]2C)cccc1C(F)(F)F` (single isomer, unassigned) [Example 347, (S*)-(6-methyl-1-(1H-pyrazol-3-yl)-6,7-dihydro-1H-[1,2,3]triazolo[4,5-c]pyridin-5(4H)-yl)(2-methyl-3-(trifluoromethyl)phenyl)methanone], the results for the IC50 on rat P2X7 (setting [3]) and on human P2X7 [1] (setting [4]) were 324 nM and 1200 nM, respectively. In addition, the “PBMC 10 μM (% control)” value at human P2X7 [2] (test compound 10 μM) turned out to be 2.0 % control.

Regarding `CC(C)n1ccc(-n2nnc3c2CCN(C(=O)c2cccc(C(F)(F)F)c2F)[C@H]3C)n1` [Example 415, (S)-(2-fluoro-3-(trifluoromethyl)phenyl)(1-(1-isopropyl-1H-pyrazol-3-yl)-4-methyl-6,7-dihydro-1H-[1,2,3]triazolo[4,5-c]pyridin-5(4H)-yl)methanone], the 50% inhibitory concentration (IC50) at rat P2X7 (setting [5]) worked out at 12.9 nM; at human P2X7 [1] (setting [6]), 146 nM. On human P2X7 [2] (setting [7]), the “PBMC 10 μM (% control)” value amounted to 1.5 % control.

`Cc1cc(-n2nnc3c2CCN(C(=O)c2cc(Cl)cc(C(F)(F)F)c2)[C@H]3C)ncc1F` (single isomer, unassigned) [Example 363, (S*)-(3-chloro-5-(trifluoromethyl)phenyl)(1-(5-fluoro-4-methylpyridin-2-yl)-4-methyl-6,7-dihydro-1H-[1,2,3]triazolo[4,5-c]pyridin-5(4H)-yl)methanone]: the half-inhibitory concentration (IC50) at rat P2X7 (setting [3]) and at human P2X7 [1] (setting [4]) was greater than 10000 nM in each case. Also, at human P2X7 [2] (test compound 10 μM), the “PBMC 10 μM (% control)” value is recorded as 63.9 % control.

Consider `C[C@H]1Cc2c(nnn2-c2cc[nH]n2)CN1C(=O)c1ccnc(C(F)(F)F)c1Cl` (single isomer, unassigned) [Example 422, (S*)-(3-chloro-2-(trifluoromethyl)pyridin-4-yl)(6-methyl-1-(1H-pyrazol-3-yl)-6,7-dihydro-1H-[1,2,3]triazolo[4,5-c]pyridin-5(4H)-yl)methanone], for which the IC50 at rat P2X7 (setting [5]) came to 3.1 nM; at human P2X7 [1] (setting [6]), 14.4 nM. Further, on human P2X7 [2] (setting [7]), the “PBMC 10 μM (% control)” value was −9.6 % control.

For the compound `Cc1cc(-n2nnc3c2CCN(C(=O)c2ccnc(C(F)(F)F)c2Cl)[C@H]3C)ncc1F` (single isomer, unassigned) [Example 372, (S*)-(3-chloro-2-(trifluoromethyl)pyridin-4-yl)(1-(5-fluoro-4-methylpyridin-2-yl)-4-methyl-6,7-dihydro-1H-[1,2,3]triazolo[4,5-c]pyridin-5(4H)-yl)methanone], the values for the IC50 at rat P2X7 (setting [3]) and at human P2X7 [1] (setting [4]) were 8730 nM and 1630 nM, respectively. Moreover, the “PBMC 10 μM (% control)” value at human P2X7 [2] (test compound 10 μM) is 1.3 % control.

On to `O=C(c1cccc(C(F)(F)F)c1Cl)N1CCc2c(nnn2-c2ccccc2)C1` [Example 61, 5-{[2-Chloro-3-(trifluoromethyl)phenyl]carbonyl}-1-phenyl-4,5,6,7-tetrahydro-1H-[1,2,3]triazolo[4,5-c]pyridine], for which the half-maximal inhibitory concentration (IC50) worked out at 1870 nM on rat P2X7 (setting [3]) and 2.7 nM at human P2X7 [1] (setting [4]). At human P2X7 [2], the “PBMC 1 μM (% control)” value is −0.1 % control.

Take `CCOC(=O)C1c2ncn(-c3cnccn3)c2CCN1C(=O)c1cccc(C(F)(F)F)c1Cl` (stereo not drawn) [Example 28, Ethyl 5-{[2-chloro-3-(trifluoromethyl)phenyl]carbonyl}-1-pyrazin-2-yl-4,5,6,7-tetrahydro-1H-imidazo[4,5-c]pyridine-4-carboxylate]: the half-inhibitory concentration (IC50) on rat P2X7 (setting [3]) worked out at 36.2 nM; on human P2X7 [1] (setting [4]) it was 6.5 nM. For the same compound, the “PBMC 1 μM (% control)” value on human P2X7 [2] is given as 4.8 % control.

For the compound `CC(C)C1c2ncn(-c3cnccn3)c2CCN1C(=O)c1cccc(C(F)(F)F)c1Cl` (stereo not drawn) [Example 16, (2-Chloro-3-(trifluoromethyl)phenyl)(4-isopropyl-1-(pyrazin-2-yl)-6,7-dihydro-1H-imidazo[4,5-c]pyridin-5(4H)-yl)methanone], the 50% inhibitory concentration (IC50) on rat P2X7 (setting [3]) came to 257 nM; at human P2X7 [1] (setting [4]), 93.7 nM. For the same compound, the “PBMC 1 μM (% control)” value at human P2X7 [2] amounted to 8.5 % control.

Take `C[C@H]1Cc2c(nnn2-c2ncc(F)cn2)CN1C(=O)c1cccc(OC(F)(F)F)c1F` [Example 427, (S)-(2-fluoro-3-(trifluoromethoxy)phenyl)(1-(5-fluoropyrimidin-2-yl)-6-methyl-6,7-dihydro-1H-[1,2,3]triazolo[4,5-c]pyridin-5(4H)-yl)methanone]: the figures for the IC50 at rat P2X7 (setting [5]) and at human P2X7 [1] (setting [6]) were 8280 nM and 262 nM, respectively. For the same compound, the “PBMC 10 μM (% control)” value at human P2X7 [2] (setting [7]) is −0.8 % control.
